Test results taken from the NIST ThermoML archive (doi:10.1016/j.tca.2011.11.036).
± gives the expanded uncertainty stated by the source.

Experiment: molar heat capacity at constant pressure; xn = mol fraction of the nth substance listed
Conditions: 101 kPa, Liquid, Small sample (50 mg) DSC

NC(N)=O [urea] + C[N+](C)(C)CCO.[Cl-]
x2 = 0.3333
Conditions | molar heat capacity at constant pressure [J/K/mol]
303.15 K | 181.4 ± 2.8
308.15 K | 182.2 ± 2.8
313.15 K | 183.2 ± 2.8
318.15 K | 183.5 ± 2.8
323.15 K | 184.5 ± 2.9
328.15 K | 185.3 ± 2.9
333.15 K | 186.4 ± 2.9
338.15 K | 187.4 ± 2.9
343.15 K | 188.5 ± 3
348.15 K | 189.5 ± 2.9
353.15 K | 190.8 ± 3.1

C[N+](C)(C)CCO.[Cl-] [choline chloride] + OCC(O)CO
x1 = 0.3333
Conditions | molar heat capacity at constant pressure [J/K/mol]
303.15 K | 237.7 ± 3.7
308.15 K | 239.1 ± 3.7
313.15 K | 240.8 ± 3.7
318.15 K | 241.9 ± 3.7
323.15 K | 243.5 ± 3.8
328.15 K | 244.9 ± 3.8
333.15 K | 246.9 ± 3.8
338.15 K | 248.4 ± 3.8
343.15 K | 250.3 ± 3.9
348.15 K | 252.1 ± 3.9
353.15 K | 254.3 ± 3.9

C[N+](C)(C)CCO.[Cl-] [choline chloride] + OCCO
x1 = 0.3333
Conditions | molar heat capacity at constant pressure [J/K/mol]
303.15 K | 190.8 ± 3
308.15 K | 192.2 ± 3
313.15 K | 194 ± 3
318.15 K | 194.9 ± 3
323.15 K | 196.4 ± 3
328.15 K | 197.6 ± 3.1
333.15 K | 199.2 ± 3.1
338.15 K | 200.6 ± 3.1
343.15 K | 202.1 ± 3.1
348.15 K | 203.9 ± 3.2
353.15 K | 205.6 ± 3.2
